Measurements published in PubChem BioAssay AID1963830 (Molecular Pharmacology Branch, DTP, NCI, 2024).

Tested on: 922993-354-T-J3-PDC complex spheroid viability
Assay: Anticancer human tumor 922993-354-T-J3-PDC patient-derived endometrial carcinoma cell line growth inhibition [POLQ]
Details: for IC50: curve of first compound; for viability, T/C: stronger effect = lower value
Method in brief: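 Complex spheroid viability model combining PDC tumour cells with endothelial (HUVEC) and MSC stromal cells. Novobiocin, ART-558 or RP6685 were tested singly and in combination with standard and investigational anticancer drugs. Each was titrated in half-log steps from near clinical Cmax, or from 10 microM where Cmax was unknown.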

[1] = second compound 0.0316 µM, first compound 0.0316 µM
[2] = second compound 0.0316 µM, first compound 0.1 µM
[3] = second compound 0.0316 µM, first compound 0.316 µM
[4] = second compound 0.0316 µM, first compound 1 µM
[5] = second compound 0.0316 µM, first compound 3.16 µM
[6] = second compound 0.0316 µM, first compound 10 µM
[7] = second compound 0.1 µM, first compound 0.0316 µM
[8] = second compound 0.1 µM, first compound 0.1 µM
[9] = second compound 0.1 µM, first compound 0.316 µM
[10] = second compound 0.1 µM, first compound 1 µM
[11] = second compound 0.1 µM, first compound 3.16 µM
[12] = second compound 0.1 µM, first compound 10 µM
[13] = second compound 0.316 µM, first compound 0.0316 µM
[14] = second compound 0.316 µM, first compound 0.1 µM
[15] = second compound 0.316 µM, first compound 0.316 µM
[16] = second compound 0.316 µM, first compound 1 µM
[17] = second compound 0.316 µM, first compound 3.16 µM
[18] = second compound 0.316 µM, first compound 10 µM
[19] = second compound 1 µM, first compound 0.0316 µM
[20] = second compound 1 µM, first compound 0.1 µM
[21] = second compound 1 µM, first compound 0.316 µM
[22] = second compound 1 µM, first compound 1 µM
[23] = second compound 1 µM, first compound 3.16 µM
[24] = second compound 1 µM, first compound 10 µM
[25] = second compound 3.16 µM, first compound 0.0316 µM
[26] = second compound 3.16 µM, first compound 0.1 µM
[27] = second compound 3.16 µM, first compound 0.316 µM
[28] = second compound 3.16 µM, first compound 1 µM
[29] = second compound 3.16 µM, first compound 3.16 µM
[30] = second compound 3.16 µM, first compound 10 µM
[31] = second compound 10 µM, first compound 0.0316 µM
[32] = second compound 10 µM, first compound 0.1 µM
[33] = second compound 10 µM, first compound 0.316 µM
[34] = second compound 10 µM, first compound 1 µM
[35] = second compound 10 µM, first compound 3.16 µM
[36] = second compound 10 µM, first compound 10 µM
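Also: spheroids exposed to the agents for one week.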
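For viability, T/C in this document: 100% = DMSO vehicle control wells.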

CCc1cc2c(N3CCc4c(cc(Cn5ccnc5)cc4-c4cn(C)nc4C(F)(F)F)C3=O)cc(C)nc2c(OC)n1 + Cc1cccc(N(C)C(=O)C2C(O)CCN2c2nc(C)cc(C(F)(F)F)c2C#N)c1
IC50 (second compound 0.0316 µM): > 10 µM | IC50 (second compound 0.1 µM): > 10 µM | IC50 (second compound 0.316 µM): > 10 µM | IC50 (second compound 1 µM): > 10 µM | IC50 (second compound 3.16 µM): > 10 µM | IC50 (second compound 10 µM): > 10 µM | viability, T/C [1]: 101% | viability, T/C [2]: 105% | viability, T/C [3]: 109% | viability, T/C [4]: 107% | viability, T/C [5]: 102% | viability, T/C [6]: 91.7% | viability, T/C [7]: 109% | viability, T/C [8]: 101% | viability, T/C [9]: 108% | viability, T/C [10]: 105% | viability, T/C [11]: 106% | viability, T/C [12]: 97% | viability, T/C [13]: 103% | viability, T/C [14]: 103% | viability, T/C [15]: 107% | viability, T/C [16]: 108% | viability, T/C [17]: 110% | viability, T/C [18]: 98.7% | viability, T/C [19]: 102% | viability, T/C [20]: 103% | viability, T/C [21]: 107% | viability, T/C [22]: 105% | viability, T/C [23]: 108% | viability, T/C [24]: 101% | viability, T/C [25]: 103% | viability, T/C [26]: 104% | viability, T/C [27]: 106% | viability, T/C [28]: 105% | viability, T/C [29]: 104% | viability, T/C [30]: 99.7% | viability, T/C [31]: 93.4% | viability, T/C [32]: 104% | viability, T/C [33]: 105% | viability, T/C [34]: 102% | viability, T/C [35]: 107% | viability, T/C [36]: 98.2%

CCc1cc2c(N3CCc4c(cc(Cn5ccnc5)cc4-c4cn(C)nc4C(F)(F)F)C3=O)ccnc2c(OC)n1 + Cc1cccc(N(C)C(=O)C2C(O)CCN2c2nc(C)cc(C(F)(F)F)c2C#N)c1
IC50 (second compound 0.0316 µM): > 10 µM | IC50 (second compound 0.1 µM): > 10 µM | IC50 (second compound 0.316 µM): > 10 µM | IC50 (second compound 1 µM): > 10 µM | IC50 (second compound 3.16 µM): > 10 µM | IC50 (second compound 10 µM): > 10 µM | viability, T/C [1]: 105% | viability, T/C [2]: 107% | viability, T/C [3]: 107% | viability, T/C [4]: 108% | viability, T/C [5]: 110% | viability, T/C [6]: 94.1% | viability, T/C [7]: 107% | viability, T/C [8]: 106% | viability, T/C [9]: 104% | viability, T/C [10]: 107% | viability, T/C [11]: 105% | viability, T/C [12]: 99% | viability, T/C [13]: 104% | viability, T/C [14]: 100% | viability, T/C [15]: 107% | viability, T/C [16]: 110% | viability, T/C [17]: 105% | viability, T/C [18]: 99.5% | viability, T/C [19]: 101% | viability, T/C [20]: 99.4% | viability, T/C [21]: 108% | viability, T/C [22]: 109% | viability, T/C [23]: 102% | viability, T/C [24]: 107% | viability, T/C [25]: 102% | viability, T/C [26]: 107% | viability, T/C [27]: 106% | viability, T/C [28]: 106% | viability, T/C [29]: 107% | viability, T/C [30]: 98.4% | viability, T/C [31]: 104% | viability, T/C [32]: 98.4% | viability, T/C [33]: 98.8% | viability, T/C [34]: 102% | viability, T/C [35]: 98.5% | viability, T/C [36]: 102%

COc1cc2cc(C(=O)CCC(=O)O)sc2cc1OC + Cc1cccc(N(C)C(=O)C2C(O)CCN2c2nc(C)cc(C(F)(F)F)c2C#N)c1
IC50 (second compound 0.0316 µM): > 10 µM | IC50 (second compound 0.1 µM): > 10 µM | IC50 (second compound 0.316 µM): > 10 µM | IC50 (second compound 1 µM): > 10 µM | IC50 (second compound 3.16 µM): > 10 µM | IC50 (second compound 10 µM): > 10 µM | viability, T/C [1]: 101% | viability, T/C [2]: 103% | viability, T/C [3]: 101% | viability, T/C [4]: 103% | viability, T/C [5]: 105% | viability, T/C [6]: 83.8% | viability, T/C [7]: 105% | viability, T/C [8]: 105% | viability, T/C [9]: 97% | viability, T/C [10]: 102% | viability, T/C [11]: 107% | viability, T/C [12]: 90.6% | viability, T/C [13]: 102% | viability, T/C [14]: 105% | viability, T/C [15]: 101% | viability, T/C [16]: 104% | viability, T/C [17]: 108% | viability, T/C [18]: 91.3% | viability, T/C [19]: 96.8% | viability, T/C [20]: 106% | viability, T/C [21]: 105% | viability, T/C [22]: 104% | viability, T/C [23]: 102% | viability, T/C [24]: 92.3% | viability, T/C [25]: 102% | viability, T/C [26]: 101% | viability, T/C [27]: 105% | viability, T/C [28]: 103% | viability, T/C [29]: 110% | viability, T/C [30]: 90.3% | viability, T/C [31]: 104% | viability, T/C [32]: 98% | viability, T/C [33]: 101% | viability, T/C [34]: 99.6% | viability, T/C [35]: 109% | viability, T/C [36]: 93.7%

COc1cccc2c1C(=O)c1c(O)c3c(c(O)c1C2=O)CC(O)(C(=O)CO)CC3OC1CC(N)C(O)C(C)O1 (stereo not drawn) + Nc1ccc(C#CCN(C(=O)Cc2ncc(C(F)(F)F)cc2C(F)(F)F)c2ccc(F)cc2)nn1
IC50 (second compound 0.0316 µM): 5.58 µM | IC50 (second compound 0.1 µM): 5.44 µM | IC50 (second compound 0.316 µM): 5.79 µM | IC50 (second compound 1 µM): 5.39 µM | IC50 (second compound 3.16 µM): 2.31 µM | IC50 (second compound 10 µM): 0.24 µM | viability, T/C [1]: 103% | viability, T/C [2]: 105% | viability, T/C [3]: 91.3% | viability, T/C [4]: 84.9% | viability, T/C [5]: 74.7% | viability, T/C [6]: 28.3% | viability, T/C [7]: 102% | viability, T/C [8]: 103% | viability, T/C [9]: 92.3% | viability, T/C [10]: 87.9% | viability, T/C [11]: 74.3% | viability, T/C [12]: 24.9% | viability, T/C [13]: 105% | viability, T/C [14]: 101% | viability, T/C [15]: 99.6% | viability, T/C [16]: 85.4% | viability, T/C [17]: 71% | viability, T/C [18]: 32.1% | viability, T/C [19]: 98.9% | viability, T/C [20]: 105% | viability, T/C [21]: 96.2% | viability, T/C [22]: 80.7% | viability, T/C [23]: 72.1% | viability, T/C [24]: 28.2% | viability, T/C [25]: 95.2% | viability, T/C [26]: 93.4% | viability, T/C [27]: 79.7% | viability, T/C [28]: 75.4% | viability, T/C [29]: 39.9% | viability, T/C [30]: 17.5% | viability, T/C [31]: 78.7% | viability, T/C [32]: 75.2% | viability, T/C [33]: 41.5% | viability, T/C [34]: 14.5% | viability, T/C [35]: 38.1% | viability, T/C [36]: 14.8%
